For orientation: IC50 means the point on the concentration scale where inhibition reaches its midpoint. Lower therefore signals higher potency.

Where two headings read alike, the source gives them in different places.

In assay [1] the target is T1, recombinant human MetAP2 (Homo sapiens, UniProt P50579).
T1 construct: made in house; host or cells: High Five insect cells (Bac-to-Bac baculovirus)
Kind of assay: MetAP2 enzyme assay (inhibition of recombinant MetAP2, Met-Gly-Met-Met substrate). Format: biochemical. Conditions: 50 nM. As for the experimental part:
Exemplary procedures for expression and purification of MetAP2 are shown in Griffith et al. (PNAS (1998) 95(26):15183-15188). Briefly, recombinant His-tagged human MetAP2 is expressed by using a Bac-to-Bac baculovirus expression system (GIBCO/BRL). Recombinant baculovirus stocks are generated and amplified as per the manufacturer's instructions. Protein is harvested 36 hr after baculovirus infection of two 15-cm plates of High Five cells.
The cell pellet are weighed and lysed (in 5 ml/g of wet pellet) in pre-chilled lysis buffer [buffer B+1% Nonidet P-40/1 mM phenymethylsulfonyl fluoride (PMSF)/2 μg/ml leupeptin/2 μg/ml aprotinin/1 μg/ml pepstatin]. The lysate is incubated on ice for 10 min and centrifuged at 10,000×g for 10 min. […] The Talon resin is pelleted by centrifugation at 1,200×g for 3 min and washed with 4×10 ml of buffer B. During the final wash, the resin is slurried into a Bio-Rad Econo column. The 6×His-tagged MetAP2 is eluted with 6 ml of 50 mM imidazole in buffer B, and 0.5 ml fractions are collected. The amount and purity of recombinant MetAP2 is analyzed by the absorbance at 280 nm and SDS/PAGE (10% gel). The fractions containing the highest amounts of MetAP2 are pooled and dialyzed against 3 liters of buffer B overnight before storage at 4° C.
An enzyme assay is performed in a 96-well format as described in Griffith et al. (PNAS (1998) 95(26):15183-15188). […] To begin the enzymatic reaction, Met-Gly-Met-Met is added to a final concentration of 4 mM and incubated at 37° C. The reaction is quenched after 20 min by adding EDTA to a concentration of 10 mM. Released methionine is quantitated as described in Ben-Bassat et al. (J Bacteriol (1987) 169:751-757).
IC50 values are calculated and compounds herein are determined to be active inhibitors of MetAP2, with some having nanomolar activities.

The nature of assay [2]: Cell Based Assay (inhibition range).
Assay [3] is described as follows: Mice weight loss, 7 day, 1 mg/kg/day oral gavage, diet-induced obese mice. Conditions: Mus musculus, 168 h, read-out: Mice Wt Loss 7 day % WL 1 mpk. The class given is in vivo. The text has this:
Lean body mass is important to normal function in subjects. Substantial loss of lean body mass is not a desirable consequence of a therapy for an overweight or obese subject. A study is undertaken to analyze weight loss with respect to lean body mass.
Mice are divided into two groups, a diet-induced obese group and a lean group (control). For the diet-induced obese group, C57BL/6NTac mice maintained prior to and during the study on a diet containing 60% fat on a kilocalorie basis are further divided into two groups, fifteen mice per group. Average body weight of these diet-induced obese mice is 40 g at the start of the study. For the lean group, fifteen C57BLI6NTac mice are maintained on a diet containing 4.3% by weight fat prior to and during the study. Average body weight of these lean mice is 33 g at the start of the study. Daily food consumption is also recorded.
Compounds of the invention are administered to one of the diet-induced obese mice groups by oral gavage as a solution in 10% DMSO, at dose of 1 mg/kg/day, 7 days. The other diet-induced obese mice group and the lean mice group are not administered anything.

Setting [4] is: 1 hr, read-out: MetAP2 Enzyme Assay 1 hr 50 nM.
Setting [5] is: 2 hr, read-out: MetAP2 Enzyme Assay 2 hr 50 nM.
Where [6] appears, read: 4 hr, read-out: MetAP2 Enzyme Assay 4 hr 50 nM.
The mark [7] stands for this setting: diet-induced obese C57BL/6NTac mice, oral gavage, 1 mg/kg/day, 7 days.

T1 sequence (P50579 whole entry): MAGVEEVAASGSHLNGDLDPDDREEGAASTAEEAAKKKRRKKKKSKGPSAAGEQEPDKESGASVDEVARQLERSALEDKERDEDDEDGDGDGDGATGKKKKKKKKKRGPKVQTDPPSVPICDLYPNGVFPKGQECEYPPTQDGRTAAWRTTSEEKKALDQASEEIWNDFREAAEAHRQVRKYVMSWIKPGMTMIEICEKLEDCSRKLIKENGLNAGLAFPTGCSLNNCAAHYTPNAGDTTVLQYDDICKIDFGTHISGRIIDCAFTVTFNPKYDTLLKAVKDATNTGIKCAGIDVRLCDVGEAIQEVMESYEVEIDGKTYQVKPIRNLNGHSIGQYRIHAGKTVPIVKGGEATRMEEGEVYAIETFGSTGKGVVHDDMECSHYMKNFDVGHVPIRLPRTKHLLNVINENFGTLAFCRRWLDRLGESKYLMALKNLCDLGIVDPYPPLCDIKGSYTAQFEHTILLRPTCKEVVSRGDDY

For the compound `CO[C@@H]1[C@H](OC(=O)N[C@@H](C(N)=O)C(C)C)CC[C@]2(CO2)[C@H]1[C@@]1(C)O[C@@H]1CC=C(C)C` [Example 3], the inhibition at 0.05 µM in assay [1] (setting [4]) came to 62%; in assay [1] (setting [5]), 90%; in assay [1] (setting [6]), 100%. In addition, the IC50 in assay [2] (cells printed in nM) was below 10 nM. For the same compound, the change in vivo at 1 mg/kg in assay [3] (po) is 5%.
`COC(=O)CCCCCCCCC(=O)O[C@@H]1CC[C@]2(CO2)[C@@H]([C@@]2(C)O[C@@H]2CC=C(C)C)[C@@H]1OC` [Example 4]: the figures for the inhibition at 0.05 µM in assay [1] (setting [4]), in assay [1] (setting [5]) and in assay [1] (setting [6]) were 46%, 58% and 94%, respectively. In assay [2] (cells printed in nM), this compound showed an IC50 of 10 to 100 nM. In addition, in assay [3] (setting [7]), the change in vivo at 1 mg/kg was 12.5%.
Regarding `CO[C@@H]1[C@H](OC(=O)CCCCCCCCC(=O)O)CC[C@]2(CO2)[C@H]1[C@@]1(C)O[C@@H]1CC=C(C)C` [Example 5], the inhibition at 0.05 µM was determined as 15% in assay [1] (setting [4]), 30% in assay [1] (setting [5]) and 50% in assay [1] (setting [6]). In assay [2] (cells printed in nM), the IC50 was below 10 nM. For the same compound, the change in vivo at 1 mg/kg in assay [3] (po) was 9.5%.
Take `COC(=O)CCCCCCCCCO[C@H]1CC[C@]2(CO2)[C@@H]([C@@]2(C)O[C@@H]2CC=C(C)C)[C@@H]1OC` [Example 6]: the inhibition at 0.05 µM in assay [1] (setting [4]), in assay [1] (setting [5]) and in assay [1] (setting [6]) was 0% each time. The compound also yielded an IC50 in assay [2] (in uM) above 1000 nM. In assay [3] (setting [7]), the change in vivo at 1 mg/kg is 1.7%.
With `CO[C@@H]1[C@H](NCCCCCCCCCC(=O)O)CC[C@]2(CO2)[C@H]1[C@@]1(C)O[C@@H]1CC=C(C)C` [Example 7], the inhibition at 0.05 µM in assay [1] (setting [4]), in assay [1] (setting [5]) and in assay [1] (setting [6]) was 0% throughout. In addition, in assay [2] (in uM), the IC50 was above 1000 nM. In assay [3] (po), the change in vivo at 1 mg/kg amounted to 0.5%.
For the compound `CO[C@@H]1C(=O)CC[C@]2(CO2)[C@H]1[C@@]1(C)O[C@@H]1CC=C(C)C` [Example 8, fumagillin ketone], the inhibition at 0.05 µM was 46% in assay [1] (setting [4]), 65% in assay [1] (setting [5]) and 93% in assay [1] (setting [6]). In assay [2] (cells printed in nM), this compound registered an IC50 below 10 nM. Besides, in assay [3] (po), the change in vivo at 1 mg/kg is 11.3%.
For `CO[C@@H]1[C@H](OC(=O)CCCCCCCCC(=O)O)CC[C@]2(CO2)[C@H]1[C@@]1(C)O[C@@H]1CCC(C)C` [Example 9], the values for the inhibition at 0.05 µM in assay [1] (setting [4]), in assay [1] (setting [5]) and in assay [1] (setting [6]) were 12%, 35% and 50%, respectively. Moreover, the IC50 in assay [2] (in uM) lay in the range of 100 to 1000 nM. Also, in assay [3] (setting [7]), the change in vivo at 1 mg/kg came out at 3.3%.
For `CCCCCCCCCCC(=O)O[C@@H]1CC[C@]2(CO2)[C@@H]([C@@]2(C)O[C@@H]2CC=C(C)C)[C@@H]1OC` [Example 12], in that order: 0%, 5%, 29%, 100 to 1000 nM and 8.4%.
On to `C=C1CC[C@]2(CO2)[C@@H]([C@@]2(C)O[C@@H]2CC=C(C)C)[C@@H]1OC` [Example 15], for which the inhibition at 0.05 µM in assay [1] (setting [4]) amounted to 26%; in assay [1] (setting [5]), 32%; in assay [1] (setting [6]), 40%. This compound came in with an IC50 in assay [2] (in uM) of 100 to 1000 nM. In addition, in assay [3] (po), the change in vivo at 1 mg/kg is 7.9%.
For `CCCCCCCC/C=C\CCCCCCCC(=O)O[C@@H]1CC[C@]2(CO2)[C@@H]([C@@]2(C)O[C@@H]2CC=C(C)C)[C@@H]1OC` [Example 16], in that order: 0%, 0%, 0%, above 1000 nM and 5.4%.
The matching figures for `CO[C@H]1[C@H]([C@@]2(C)O[C@@H]2CC=C(C)C)[C@]2(CCC1(F)F)CO2` [Example 17]: 29%, 44%, 40%, above 1000 nM and 0.1%.
As for `CCCCCCCCCCS[C@@H]1CC[C@]2(CO2)[C@@H]([C@@]2(C)O[C@@H]2CC=C(C)C)[C@@H]1OC` [Example 18], the inhibition at 0.05 µM in assay [1] (setting [4]), in assay [1] (setting [5]) and in assay [1] (setting [6]) was 0% each time. In assay [2] (in uM), this compound showed a 50% inhibitory concentration (IC50) above 1000 nM. Also, the change in vivo at 1 mg/kg in assay [3] (setting [7]) was 0%.
Regarding `COC(=O)CCCCCCCCCO[C@@H]1CC[C@]2(CO2)[C@@H]([C@@]2(C)O[C@@H]2CC=C(C)C)[C@@H]1OC` [Example 19], the inhibition at 0.05 µM in assay [1] (setting [4]), in assay [1] (setting [5]) and in assay [1] (setting [6]) was 0% in each case. This compound also had an IC50 in assay [2] (in uM) above 1000 nM. Moreover, the change in vivo at 1 mg/kg in assay [3] (setting [7]) was -0.9%.
As for `CCCCCCCCCC=C1CC[C@]2(CO2)[C@@H]([C@@]2(C)O[C@@H]2CC=C(C)C)[C@@H]1OC` [Example 20], the inhibition at 0.05 µM in assay [1] (setting [4]), in assay [1] (setting [5]) and in assay [1] (setting [6]) was 0% each time. In assay [2] (in uM), this compound came in with an IC50 above 1000 nM. In assay [3] (po), the change in vivo at 1 mg/kg was determined as 0.4%.
`CO[C@@H]1[C@@H](F)CC[C@]2(CO2)[C@H]1[C@@]1(C)O[C@@H]1CC=C(C)C` [Example 23]: the values for the inhibition at 0.05 µM in assay [1] (setting [4]), in assay [1] (setting [5]) and in assay [1] (setting [6]) were 23%, 28% and 27%, respectively. The IC50 in assay [2] (cells printed in nM) fell in the range of 10 to 100 nM. Besides, the change in vivo at 1 mg/kg in assay [3] (setting [7]) is -0.33%.
Consider `CCCC/C=C/C[C@H]1O[C@]1(C)[C@H]1[C@H](OC)C(=O)CC[C@]12CO2` [Example 25], for which the inhibition at 0.05 µM in assay [1] (setting [4]) was found to be 19%; in assay [1] (setting [5]) it was 40%; in assay [1] (setting [6]), 40%. The compound also displayed an IC50 in assay [2] (cells printed in nM) of 10 to 100 nM. The change in vivo at 1 mg/kg in assay [3] (po) came out at 0.1%.
Turning to `CO[C@@H]1[C@H](OC(=O)CCCCCCCCC(=O)O[C@@H]2CC[C@]3(CO3)[C@@H]([C@@]3(C)O[C@@H]3CC=C(C)C)[C@@H]2OC)CC[C@]2(CO2)[C@H]1[C@@]1(C)O[C@@H]1CC=C(C)C` [Example 27], the inhibition at 0.05 µM in assay [1] (setting [6]) was determined as 48%. This compound also had an IC50 in assay [2] (cells printed in nM) of 10 to 100 nM. Besides, the change in vivo at 1 mg/kg in assay [3] (po) came out at 4.4%.
In the case of `CO[C@@H]1[C@H](OC(=O)NCCC2CCCN2C)CC[C@]2(CO2)[C@H]1[C@@]1(C)O[C@@H]1CC=C(C)C` (some centres unmarked) [Example 29], the inhibition at 0.05 µM in assay [1] (setting [6]) was determined as 63%. This compound came in with an IC50 in assay [2] (cells printed in nM) below 10 nM. In addition, the change in vivo at 1 mg/kg in assay [3] (setting [7]) was 5.7%.
The matching figures for `CO[C@@H]1[C@H](OC(=O)NC2CN3CCC2CC3)CC[C@]2(CO2)[C@H]1[C@@]1(C)O[C@@H]1CC=C(C)C` (some centres unmarked) [Example 30]: 30%, below 10 nM and -0.9%.
For `CO[C@@H]1[C@H](OC(=O)N[C@@H](C(=O)NCCCN(C)C)C(C)C)CC[C@]2(CO2)[C@H]1[C@@]1(C)O[C@@H]1CC=C(C)C` [Example 32], in that order: 54%, below 10 nM and 0.3%.
Turning to `CO[C@@H]1[C@H](OC(=O)N[C@@H](C(=O)NCCC2CCCN2C)C(C)C)CC[C@]2(CO2)[C@H]1[C@@]1(C)O[C@@H]1CC=C(C)C` (some centres unmarked) [Example 33], the inhibition at 0.05 µM in assay [1] (setting [6]) stood at 43%. In addition, the IC50 in assay [2] (cells printed in nM) is below 10 nM. For the same compound, the change in vivo at 1 mg/kg in assay [3] (setting [7]) stood at 2.1%.

The values are drawn from patent US10259796B2, “Oxaspiro[2.5]octane derivatives and analogs” (Zafgen, Inc., priority 2011, dated 2019).
